# In patent US8524699B2, “Substituted dihydropyrazolones and use thereof as HIF-prolyl-4-hydroxylase inhibitors” (Bayer Intellectual Property GmbH, priority 2006, dated 2013):
# Where a name gives a salt, the structure may show the parent alone.
# Target: HIF prolyl hydroxylase
# Assay: Inhibition of the activity of HIF prolyl hydroxylase (VBC complex binding to hydroxylated peptide substrate)
# Format: biochemical
# Conditions: cell lysate containing prolyl hydroxylase
# Method: Hydroxylated HIF bonds specifically to the von Hippel-Lindau protein-elongin B-elongin C complex (VBC complex). This interaction occurs only if HIF is hydroxylated on a conserved prolyl radical. It is the basis for the biochemical determination of HIF prolyl hydroxylase activity. The test is carried out as described [Oehme F., Jonghaus W., Narouz-Ott L., Huetter J., Flamme I., Anal. Biochem. 330 (1), 74-80 (2004)]:
# A clear 96-well microtiter plate coated with NeutrAvidin HBC (Pierce) is incubated with blocker casein for 30 minutes. The plate is then washed three times with 200 μl each time of wash buffer (50 mM Tris, pH 7.5, 100 mM NaCl, 10% (v/v) blocker casein, 0.05% (v/v) Tween 20) per well. The peptide biotin-DLDLEMLAPYIPMDDDFQL (Eurogentec, 4102 Seraing, Belgium) is added in a concentration of 400 nM in 100 μl wash buffer. This peptide serves as a substrate for the prolyl hydroxylation and is bonded to the microtiter plate. After incubation for 60 minutes, the plate is washed three times with wash buffer, incubated with 1 mM biotin in blocker casein for 30 minutes and then washed again three times with wash buffer.
# To carry out the prolyl hydroxylase reaction, the peptide substrate bonded to the plate is incubated with a cell lysate containing prolyl hydroxylase for 1 to 60 minutes. The reaction takes place in 100 μl reaction buffer (20 mM Tris, pH 7.5, 5 mM KCl, 1.5 mM MgCl2, 1 μM-1 mM 2-oxoglutarate, 10 μM FeSO4, 2 mM ascorbate) at room temperature. The reaction mixture moreover contains various concentrations of the prolyl hydroxylase inhibitor to be tested. The test substance is preferably, but not exclusively, employed at concentrations of between 1 nM and 100 μM. The reaction is stopped by washing the plate three times with wash buffer.
# For quantitative determination of the prolyl hydroxylation, a fusion protein which contains both thioredoxin from E. coli and the VBC complex in 80 μl bonding buffer (50 mM Tris, pH 7.5, 120 mM NaCl) is added. After 15 minutes, 10 μl of a solution of polyclonal anti-thioredoxin antibodies from rabbit in bonding buffer are added. After a further 30 minutes, 10 μl of a solution of anti-rabbit immunoglobulin coupled to horseradish peroxidase in bonding buffer are added. After incubation at room temperature for 30 minutes, the plate is washed three times with wash buffer in order to remove non-bonded VBC complex and antibodies. To determine the amount of bonded VBC complex, the plate is incubated with TMB for 15 minutes. The color reaction is ended by addition of 100 μl 1 M sulfuric acid. The amount of bonded VBC complex is determined by measurement of the optical density at 450 nm. It is proportional to the amount of hydroxylated proline in the peptide substrate.
# Alternatively, a VBC complex coupled to europium (Perkin Elmer) can be used for detection of the prolyl hydroxylation. In this case, the amount of bonded VBC complex is determined by the fluorescence with respect to time. The use of VBC complex labeled with [^35S]-methionine is moreover possible. For this, the radioactively labeled VBC complex can be prepared by in vitro transcription-translation in reticulocyte lysate.
# Representative IC50 values for the embodiment examples are reproduced in the following Table 1: […]
row,IC50,Compound
1,4000 nM,"CN(C)CCOc1cc(-n2[nH]cc(-c3cccnc3)c2=O)ncn1 [Example 26, 2-{6-[2-(Dimethylamino)ethoxy]pyrimidin-4-yl}-4-pyridin-3-yl-1,2-dihydro-3H-pyrazol-3-one hydrochloride]"
2,890 nM,"COCCN1CCN(c2cc(-n3[nH]cc(-c4cccnc4)c3=O)ncn2)CC1 [Example 28, 2-{6-[4-(2-Methoxyethyl)piperazin-1-yl]pyrimidin-4-yl}-4-pyridin-3-yl-1,2-dihydro-3H-pyrazol-3-one dihydrochloride]"
3,1120 nM,"N#Cc1cncc(-c2c[nH]n(-c3cc(N4CCCCC4)ncn3)c2=O)c1 [Example 44, 5-[3-oxo-2-(6-piperidin-1-ylpyrimidin-4-yl)-2,3-dihydro-1H-pyrazol-4-yl]pyridine-3-carbonitrile hydrochloride]"
4,930 nM,"O=c1c(-c2cccnc2)c[nH]n1-c1cnccn1 [Example 46, 2-Pyrazin-2-yl-4-pyridin-3-yl-1,2-dihydro-3H-pyrazol-3-one hydrochloride]"
5,1700 nM,"CCN(CC)CCCCCCNc1cc(-n2[nH]cc(-c3cccnc3)c2=O)ncn1 [Example 55, 2-(6-{[6-(Diethylamino)hexyl]amino}pyrimidin-4-yl)-4-pyridin-3-yl-1,2-dihydro-3H-pyrazol-3-one]"

# Continued, molecule first:
row,Compound,IC50
1,Cc1cc(C)n(-c2cc(-n3[nH]cc(-c4cccnc4)c3=O)ncn2)n1 [Example 3],700 nM
2,O=c1c(-c2cccnc2)c[nH]n1-c1nc2ccccc2s1 [Example 6],2800 nM
3,O=c1c(-c2cccnc2)c[nH]n1-c1nnc(-c2ccc(Cl)cc2)s1 [Example 7],880 nM
4,O=c1c(-c2ccc(Cl)nc2)c[nH]n1-c1cc(N2CCOCC2)ncn1 [Example 16],480 nM
5,"O=c1c(-c2cccnc2)c[nH]n1-c1cc(N2CCOCC2)ncn1 [Example 18, 2-(6-Morpholin-4-yl-pyrimidin-4-yl)-4-pyridin-3-yl-1,2-dihydro-3H-pyrazol-3-one hydrochloride]",180 nM
6,"O=c1c(-c2cccnc2)c[nH]n1-c1ccc(-c2ccccc2)nn1 [Example 22, 2-(6-Phenylpyridazin-3-yl)-4-pyridin-3-yl-1,2-dihydro-3H-pyrazol-3-one hydrochloride]",2700 nM
